Test results taken from patent US8609870B2, “Treating various disorders using TrkB agonists” (Emory University, priority 2008, dated 2013).

Legend:
C57BL/6J mice = assay: Tone-shock fear conditioning model; assay type: in vivo, mouse
Experimental: Following a two-day habituation to testing context, wild-type C57Bl/6J mice (N=28, male, 8-10 weeks old) were fear conditioned in eight identical startle response systems (SR-LAB, SDI) consisting of a nonrestrictive Plexiglas cylinder, 5.5 cm in diameter and 13 cm long, mounted on a Plexiglas platform which was located in a ventilated, sound-attenuated chamber. One hour prior to fear conditioning, mice received […] (N=14, 5 mg/kg, i.p.) or vehicle (N=14, 17% DMSO in PBS). Mice then received 5 tone—footshock pairings, with 30 second 12 kHz, 85 dB tones which co-terminated with the footshocks (intensity of 0.5 mA, 0.5 second) with a 5 minute intertrial interval (ITI), after which they were returned to their homecage. 24 and 48 hrs after training, the mice were tested for freezing in rodent modular test chambers with an inside area of 30.5 cm×24.1 cm×21.0 cm. Three minutes after placing the mouse in the test chamber, fifteen 30 second conditioned stimulus (CS) tones with an ITI of 1.5 min were delivered through a high-frequency speaker attached to the side of each chamber. Percentage time spent freezing during the CS presentations was calculated for each mouse using FreezeFrame (Product Number: ACT-100) (Coulbourn Instruments, Whitehall, Pa.).
To determine whether deoxygeduning would enhance learning in a whole animal model of learning and memory, in which BDNF-dependent TrkB activation was required, a tone-shock fear conditioning model was developed (see FIG. 26). Following habituation to the testing context, 28 adult wild-type, C57BL/6J mice were given systemic injections of deoxygedunin (N=14, 5 mg/kg, i.p.) or vehicle (N=14) 1 hour prior to being subjected to the tone-shock fear conditioning model. […] Mice were then tested, with no additional drug treatment, for cue-conditioned fear in the previously habituated context on the two days following fear acquisition. […] To further explore these effects, individual animals' freezing levels throughout the tone-fear testing sessions were examined. […]

TrkA = TrkA (Mus musculus, UniProt Q3UFB7); assay: TrkA phosphorylation in mouse brain after i.p. injection; assay type: in vivo; design: endogenous in cells; details: mice, 5 mg/kg i.p.
TrkC = molecular target: T1, TrkC (Homo sapiens, UniProt Q16288); assay: Tyrosine phosphorylation of TrkC in transfected HEK293 cells; assay type: cell-based
T1 construct: expressed in transfected cells; host or cells: HEK293
Description: To determine if an identified active compound promotes tyrosine phosphorylation of the other Trk receptors, HEK293 cells are transfected with various Trk receptors, which is followed by treatment with the identified active compound. Treatment with an identified active compound that elicits tyrosine phosphorylation in the TrkB receptor but not in the TrkA or TrkC receptor indicates an active compound.
To determine whether deoxygedunin binds the intra-cellular domain (ICD) or extra-cellular domain (ECD) of the TrkB receptor, ligand binding assays with [^3H]-deoxygedunin were performed. […] The coprecipitated HA-TrkB was also prominently tyrosine phosphorylated (see FIG. 14, 3rd panel).

mice = assay: Forced swim test; assay type: in vivo, mouse; details: for immobility time: TrkB F616A knockin mice
Experimental: To explore whether an identified active compound has an antidepressant effect like BDNF, a forced swim test is conducted. Adult male mice (2-3 months old) are randomly submitted, without a pre-swim, to a forced swim test of 6 minutes with immobility recorded in the last 4 minutes. The mice are injected intraperitoneally for 5 days with saline, imipramine (20 mg/kg), amitryptyline (15 mg/kg), or an identified active compound (5 mg/kg). The mice are allowed to adapt to the test room for 2 days, and the mice are placed in a clear glass cylinder with a diameter of 16 cm, half-filled with clear water at 24° C.
To investigate whether deoxygedunin mimicked BDNF in suppressing depression-like symptoms, a forced swim test after subchronic treatment of the mice for 5 days with various drugs was conducted. […] To assess whether the behavior responses by 7,8-DHF and deoxygedunin were mediated by TrkB receptor, TrkB F616A knockin mice were used. The transgenic mice were subjected to saline or 1NMPP1 treatment, respectively.

TrkA, sequence (Q3UFB7 34-799): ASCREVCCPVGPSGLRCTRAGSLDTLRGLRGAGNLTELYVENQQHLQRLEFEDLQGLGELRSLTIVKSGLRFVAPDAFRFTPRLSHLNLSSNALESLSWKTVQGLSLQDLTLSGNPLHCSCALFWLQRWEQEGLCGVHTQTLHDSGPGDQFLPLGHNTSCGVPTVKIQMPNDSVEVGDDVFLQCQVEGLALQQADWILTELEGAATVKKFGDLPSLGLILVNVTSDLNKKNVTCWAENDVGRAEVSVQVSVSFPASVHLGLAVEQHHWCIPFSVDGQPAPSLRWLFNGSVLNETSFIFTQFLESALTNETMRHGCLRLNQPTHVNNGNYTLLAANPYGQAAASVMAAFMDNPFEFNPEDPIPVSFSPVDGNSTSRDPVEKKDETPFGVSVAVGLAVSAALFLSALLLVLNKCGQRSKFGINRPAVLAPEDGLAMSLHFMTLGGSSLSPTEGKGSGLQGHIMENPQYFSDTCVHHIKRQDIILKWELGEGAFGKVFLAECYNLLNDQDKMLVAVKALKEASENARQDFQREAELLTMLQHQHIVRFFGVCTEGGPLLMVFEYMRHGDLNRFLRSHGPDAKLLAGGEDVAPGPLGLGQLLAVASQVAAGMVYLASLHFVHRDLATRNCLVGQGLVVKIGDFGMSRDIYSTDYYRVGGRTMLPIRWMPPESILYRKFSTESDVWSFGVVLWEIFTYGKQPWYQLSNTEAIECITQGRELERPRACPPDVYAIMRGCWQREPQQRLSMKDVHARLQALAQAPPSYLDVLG
T1 sequence (Q16288 32-839, species assumed): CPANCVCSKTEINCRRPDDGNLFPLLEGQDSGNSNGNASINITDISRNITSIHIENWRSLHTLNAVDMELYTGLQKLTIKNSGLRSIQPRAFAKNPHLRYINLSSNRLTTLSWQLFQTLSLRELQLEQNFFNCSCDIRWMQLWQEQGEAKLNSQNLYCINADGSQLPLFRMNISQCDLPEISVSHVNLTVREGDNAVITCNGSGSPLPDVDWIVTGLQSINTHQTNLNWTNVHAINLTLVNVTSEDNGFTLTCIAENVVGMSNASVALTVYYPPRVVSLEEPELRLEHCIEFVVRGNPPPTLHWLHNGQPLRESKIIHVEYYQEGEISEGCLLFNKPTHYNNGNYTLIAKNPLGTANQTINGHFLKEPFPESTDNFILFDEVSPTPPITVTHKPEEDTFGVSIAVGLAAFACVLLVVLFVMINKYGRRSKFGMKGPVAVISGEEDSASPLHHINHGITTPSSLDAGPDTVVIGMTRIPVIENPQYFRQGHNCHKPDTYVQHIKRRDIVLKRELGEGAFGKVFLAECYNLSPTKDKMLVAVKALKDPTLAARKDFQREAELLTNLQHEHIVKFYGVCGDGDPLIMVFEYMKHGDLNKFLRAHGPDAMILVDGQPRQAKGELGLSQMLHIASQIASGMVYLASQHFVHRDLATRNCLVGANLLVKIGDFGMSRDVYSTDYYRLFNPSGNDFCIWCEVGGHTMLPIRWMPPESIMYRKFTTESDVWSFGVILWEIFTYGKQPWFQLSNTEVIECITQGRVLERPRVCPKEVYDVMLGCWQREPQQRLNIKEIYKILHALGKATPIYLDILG

`CC(=O)O[C@@H]1C[C@H]2C(C)(C)C(=O)C=C[C@]2(C)[C@H]2CC[C@]3(C)C(=CC(=O)O[C@H]3c3ccoc3)[C@@]21C` [deoxygedunin] was tested, and the “shock reactivity during fear acquisition training” value (C57BL/6J mice; 5 mg/kg i.p. 1 hour prior to conditioning, versus vehicle) was “no difference”, the “average level of tone-dependent conditioned freezing versus vehicle” value (C57BL/6J mice; 5 mg/kg i.p. 1 hour prior to training, tested on the two following days) was “significantly different on both testing days” and the “increase in the level of freezing during the first set of CS trials” value (C57BL/6J mice; 5 mg/kg i.p., each testing day, versus vehicle) was 2-3 fold. The “TrkA phosphorylation in the brain” value (TrkA) was “not TrkA”, the “tyrosine phosphorylation in TrkC” value (TrkC) was “not in TrkA or TrkC receptor” and the immobility time (mice; TrkB blocked by 1NMPP1) was “did not have a significant effect”. The immobility time (mice; saline group) was “substantially reduced the immobility time” and the swimming immobility (mice; mice, subchronic treatment 5 days, imipramine 20 mg/kg, deoxygedunin 5 mg/kg) was “reduced the immobility”.
